Patent US4994473A, “Pyridyl containing insecticides” (ICI Americas Inc., priority 1988, dated 1991)

Key:
Trichoplusia ni = assay: Cabbage looper larvae leaf-dip test; format: in vivo, Cabbage Looper Trichoplusia ni (Hubner); details: second instar larvae, percent of test compound in solution, 3-5 days
Experimental: (§1) The compounds in Table I above were tested for insecticidal activity using the following testing procedures. LC50 values, based on the results of these tests and calculated according to dosage-mortality curves, are expressed in Table II.
Cabbage Looper Trichoplusia ni (Hubner)
The test compound was diluted in a 50--50 acetone-water solution Cotyledons of hyzini squash (Calabacita abobrinha), approximately 1×1.5 inches, were immersed in the test solutions for 2-3 seconds and placed on a wire screen to dry. The dried leaves were p1aced in petri dishes containing a moistened piece of filter paper and infested with 5 secondinstar cabbage looper larvae. The dishes were placed in a high humidity chamber. Mortality of the larvae was recorded 3-5 days later. Test concentrations ranged from 0.1% downward. The LC-50 value is expressed below in Table II under the heading "CL" in terms of percent of the test compound in solution.

Tetranychus urticae = assay: Two-spotted mite acaricidal test on pinto bean plants; format: in vivo, two-spotted mite Tetranychus urticae (Koch); details: percent concentration in solution, 5-7 days; for LC50 2-SM A: adults; for LC50 2-SM E: eggs
From the text: Acaricidal Evaluation Test
The two-spotted mite (2SM) [Tetranychus urticae (Koch)]was employed in tests for miticides. The test procedure was as follows:
Pinto bean plants (Phaseolus sp.) approximately 10 cm tall, were transplanted into sandy loam soil in small cups and thoroughly infested with two-spotted mites of mixed ages and sexes. Twenty-four hours later the infested plants were inverted and dipped for 2-3 seconds in 50--50 acetone-water solutions of the test compound. Treated plants were held in the greenhouse, and 5-7 days later mortality was determined for both adult mites and the nymphs hatching from eggs which were on the plants at the time of treatment. Test concentrations ranged from 0.05% downward. The LC-50 value is expressed below in Table II under the headings "2SM-A" (i.e., adults) and "2SM-E" (i.e. eggs) in terms of percent concentration of the test compound in the solution.

Aphis fabae = assay: Black bean aphid spray test on nasturtium plants, mortality after 48 hours; format: in vivo, Black Bean Aphid Aphis fabae (Scop.); details: mixed ages, percent of test compound in sprayed solution
Experimental: as §1
Black Bean Aphid Aphis fabae (Scop.)
Nasturtium plants (Tropaeolum sp.) approximately 5 cm tall, were transplanted into sandy loam soil in small cups and infested with 25-50 black bean aphids of mixed ages. Twenty-four hours later they were sprayed to the point of runoff with 50--50 acetone-water solutions of the test compound. Treated plants were held in the greenhouse and mortality was recorded after 48 hours. Test concentrations ranged from 0.05% downward. The LC-50 value is expressed below in Table II under the heading "BA" in terms of percent of the test compound in the sprayed solution.

[1] = system: Diabrotica undecimpunctata undecimpunctata; assay: Western spotted cucumber beetle larvae soil test; format: in vivo; details: Diabrotica eggs/larvae; ppm of the test compound in the soil
Experimental: as §1
Western Spotted Cucumber Beetle Larvae Diabrotica undecimpunctata undecimpunctata (Mannherheim)
Ten grams of moist potting soil was placed in a plastic cup. The test compound was dissolved in acetone. A 0.05 ml aliquot of the test sample, diluted to the desired concentration, was added to the soil. The cup was capped and the soil was mixed on a vortex mixer for approximately 15 seconds. An indentation was made on the surface of the soil and approximately 50 Diabrotica eggs were added. The eggs were covered with soil and maintained at room temperature (approximately 70° F. or 21° C.). Four days later a section of Romaine lettuce (Latuca sativa) leaf was placed in the treated cups. One week later the cups were examined for live larvae. Test concentrations ranged from 25 ppm downward. The LC-50 value is expressed below in Table II under the heading "Diabrotica" in terms of ppm of the test compound in the soil.

Heliothis virescens = assay: Tobacco budworm egg dip test; format: in vivo, Tobacco Budworm Heliothis virescens (Fabricius); details: 2-day old eggs (TBW-E), percent of test compound in solution
Experimental: as §1
Tobacco Budworm Heliothis virescens (Fabricius)
Eggs: Paper towel patches of 2-day old eggs of the tobacco budworm were dipped in acetone solutions of the test compound and placed in petri dishes containing a portion of larval rearing medium. Treated eggs were maintained at 78° F. and mortality was recorded after all control eggs had hatched and the young larvae were feeding on the media. Test concentrations ranged from 0.1% downward. The LC-50 value is expressed below in Table II under the heading "TBW-E" in terms of percent of the test compound in the solution.

Musca domestica = assay: Housefly contact test, mortality after 48 hours; format: in vivo, Housefly Musca domestica; details: μg of the test compound per 25 female flies
Experimental: as §1
The test compound was diluted in acetone and aliquots pipetted onto the bottom of aluminum dishes. To ensure even spreading of the chemical on the bottom of the dishes, 1 ml of acetone containing 0.01% peanut oil was also added to each dish. After all solvents had evaporated, the dishes were placed in circular cardboard cages containing 25 female houseflies, 1-2 days old. The cages were covered on the bottom with cellophane and on the top with tulle netting, and each contained a sugar-water saturated cotton plug for maintenance of the flies. Mortality was recorded after 48 hours. Test levels ranged from 100 μg/25 female houseflies downward. The LC-50 value is expressed below in Table II under the heading "HF", in terms of μg of the test compound per 25 female flies.

Row | SMILES | LC50 CL (Trichoplusia ni) [%] | LC50 2-SM A (Tetranychus urticae) [%] | LC50 2-SM E (Tetranychus urticae) [%] | LC50 BA (Aphis fabae) [%] | LC50 Diabrotica [1] [ppm] | LC50 TBW (Heliothis virescens) [%] | LC50 HF (Musca domestica) [µg]
1 | CC(C)C(=Nc1ccc(Cl)nc1)OCc1cccc(Oc2ccccc2)c1 [Compound 1, N-(6-Chloro-3-pyridyl)-0-(3-phenoxybenzyl)isobutyrylimidate] | 0.005 | > 0.05 | > 0.05 | 0.001 | > 25 | 0.04 | 5.5
2 | CC(C)C(=Nc1ccc(Cl)nc1Cl)OCc1cccc(Oc2ccccc2)c1 [Compound 2] | 0.0027 | > 0.05 | > 0.05 | 0.003 | > 25 | 0.075 | 18
3 | Cc1ccc(N=C(OCc2cccc(Oc3ccccc3)c2)C(C)C)cn1 [Compound 10] | > 0.1 | > 0.05 | > 0.05 | 0.05 | – | > 0.1 | 25
4 | CC(C)C(=Nc1ccc(Br)nc1)OCc1cccc(Oc2ccccc2)c1 [Compound 11] | 0.01 | > 0.05 | > 0.05 | 0.01 | – | > 0.1 | 7
5 | CC(C)(Cl)C(=Nc1ccc(Br)nc1)OCc1cccc(Oc2ccccc2)c1 [Compound 12] | 0.02 | > 0.05 | > 0.05 | 0.05 | – | > 0.1 | 12
6 | CC(C)C(=Nc1cncc(Br)c1)OCc1cccc(Oc2ccccc2)c1 [Compound 13] | 0.015 | – | – | > 0.05 | – | > 0.1 | 7
7 | CC(C)C(=Nc1ccc2ncccc2c1)OCc1cccc(Oc2ccccc2)c1 [Compound 16] | 0.025 | > 0.05 | > 0.05 | – | > 25 | > 0.1 | 59
8 | CC(C)C(=Nc1cnc2ccccc2c1)OCc1cccc(Oc2ccccc2)c1 [Compound 17] | 0.05 | > 0.05 | > 0.05 | – | > 25 | > 0.1 | 36
9 | CC(C)C(=Nc1ccc2ncoc2c1)OCc1cccc(Oc2ccccc2)c1 [Compound 18] | 0.009 | > 0.05 | > 0.05 | – | > 25 | > 0.1 | 8
10 | CC(C)C(=Nc1ccc2ocnc2c1)OCc1cccc(Oc2ccccc2)c1 [Compound 19] | 0.04 | > 0.05 | > 0.05 | – | > 25 | > 0.1 | 10
11 | CC(C)C(=Nc1ccc2ncsc2c1)OCc1cccc(Oc2ccccc2)c1 [Compound 20] | 0.009 | – | – | – | – | – | 6
12 | CC(C)C(=Nc1ccc2nc(C(C)C)sc2c1)OCc1cccc(Oc2ccccc2)c1 [Compound 21] | 0.05 | > 0.05 | > 0.05 | – | > 25 | > 0.1 | > 100
13 | CC(C)C(=Nc1ccc(Cl)nc1)OCc1cccc(Oc2ccc(F)cc2)c1 [Compound 22] | 0.001 | > 0.05 | > 0.05 | – | > 25 | 0.05 | 9
14 | CC(C)C(=Nc1ccc(Cl)nc1)NCc1cccc(Oc2ccccc2)c1 [Compound 23] | 0.1 | > 0.05 | > 0.05 | – | > 25 | > 0.1 | > 100
15 | Cc1nc2cc(N=C(OCc3cccc(Oc4ccccc4)c3)C(C)C)ccc2o1 [Compound 24] | 0.0075 | > 0.05 | > 0.05 | – | > 25 | > 0.1 | > 100
16 | Cc1nc2ccc(N=C(OCc3cccc(Oc4ccccc4)c3)C(C)C)cc2o1 [Compound 25] | 0.0075 | > 0.05 | > 0.05 | – | > 25 | > 0.1 | 38
17 | CCCCc1nc2ccc(N=C(OCc3cccc(Oc4ccccc4)c3)C(C)C)cc2o1 [Compound 26] | 0.004 | > 0.05 | > 0.05 | 0.05 | – | > 0.1 | > 100
18 | CC(C)C(=Nc1ccc2nc(C(C)C)oc2c1)OCc1cccc(Oc2ccccc2)c1 [Compound 27] | 0.0035 | > 0.05 | > 0.05 | > 0.05 | – | > 0.1 | > 100
19 | CC(C)C(=Nc1ccc(Cl)nc1)OCc1ccc(F)c(Oc2ccc(F)cc2)c1 [Compound 31] | 0.0016 | > 0.05 | > 0.05 | – | > 25 | 0.45 | 7.5
20 | CC(C)C(=Nc1ccc(Cl)nc1)OCc1ccc(F)c(Oc2ccc(Cl)cc2)c1 [Compound 32] | 0.00075 | > 0.05 | 0.05 | – | > 25 | 0.03 | 22
21 | CC(C)C(=Nc1cc(C(F)(F)F)ccn1)OCc1cccc(Oc2ccccc2)c1 [Compound 34] | 0.018 | > 0.05 | > 0.05 | – | > 25 | > 0.1 | > 100
22 | CC(C)C(=Nc1cncc(C(F)(F)F)c1)OCc1cccc(Oc2ccc(F)cc2)c1 [Compound 35] | 0.001 | > 0.05 | > 0.05 | – | > 25 | 0.1 | 23
23 | CC(C)C(=Nc1cc(C(F)(F)F)ccn1)OCc1cccc(Oc2ccc(F)cc2)c1 [Compound 36] | 0.015 | > 0.05 | > 0.05 | – | > 25 | > 0.1 | > 100
24 | CCOc1ccc(N=C(OCc2cccc(Oc3ccccc3)c2)C(C)C)cn1 [Compound 41] | – | > 0.05 | > 0.05 | > 0.05 | > 25 | > 0.1 | < 100
